Results from patent publication US8178658B2 (Dow AgroSciences, LLC, priority 2008, dated 2012).

How the values were obtained:
[1] = test system: beet armyworm (BAW; Spodoptera exigua: Lepidoptera); test: 96-well microtiter plate-based high throughput (HTS) diet bioassay on beet armyworm (BAW HTS); type: in vivo; conditions: BAW eggs, 12 μg test compound per well, mortality at 6 d post-treatment, mortality class
Method in brief: (§1)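 Percent larval mortality after six days was the endpoint. Higher-throughput plates used eggs, 12 μg compound per well and 29° C darkness; trays used second instar larvae, a 50 μg/cm^2 dose and 25° C with 14:10 light cycle.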

[2] = test system: beet armyworm (BAW; Spodoptera exigua: Lepidoptera); test: 128-well diet tray assay on beet armyworm (BAW 50); type: in vivo; conditions: 128-well diet tray assay; 50 μg/cm^2 of test compound on diet; second instar BAW larvae; mortality class
Method in brief: as §1

[3] = 96-well microtiter plate HTS diet assay

SMILES | BAW HTS ([1]; 96-well HTS diet assay) | BAW HTS [1, 3] | BAW 50 ug/cm2 [2] | BAW HTS ([1]; 96-well HTS diet bioassay)
CCO[C@@H]1[C@@H](OC)[C@H](C)O[C@@H](OC(=O)Nc2ccc(-c3ncn(-c4ccc(OC(F)(F)C(F)(F)C(F)(F)F)cc4)n3)cc2)[C@@H]1OC [Compound 225] | B (either (1) the compound was tested and less than 50 percent mortality was observed or (2) the compound was not tested) | B (either (1) the compound was tested and less than 50 percent mortality was observed or (2) the compound was not tested) | A (the compound was tested and at least 50 percent mortality was observed) | –
CCO[C@@H]1[C@@H](OC)[C@H](C)O[C@@H](OC(=O)Nc2ccc(-c3noc(-c4ccc(OC(F)(F)F)cc4)n3)cc2)[C@@H]1OC [Compound 240] | A (the compound was tested and at least 50 percent mortality was observed) | A (the compound was tested and at least 50 percent mortality was observed) | A (the compound was tested and at least 50 percent mortality was observed) | –
COC1C(C)OC(ON=Cc2ccc(Cl)c(-c3cn(-c4ccc(OC(F)(F)F)cc4)cn3)c2)C(OC)C1OC (stereo not drawn) [Compound 50] | – | A (the compound was tested and at least 50 percent mortality was observed) | A (the compound was tested and at least 50 percent mortality was observed) | A (the compound was tested and at least 50 percent mortality was observed)
CCO[C@@H]1[C@@H](OC)[C@H](C)O[C@@H](OC(=O)Nc2ccc(-c3ccc(-c4ccc(OC(F)(F)F)cc4)nn3)cc2)[C@@H]1OC [Compound 248] | B (either (1) the compound was tested and less than 50 percent mortality was observed or (2) the compound was not tested) | B (either (1) the compound was tested and less than 50 percent mortality was observed or (2) the compound was not tested) | B (either (1) the compound was tested and less than 50 percent mortality was observed or (2) the compound was not tested) | –
CCOC1C(OC)C(C)OC(ON=Cc2ccc(N3CCN(c4ccc(C(F)(F)F)cn4)CC3)cc2)C1OC (stereo not drawn) [Compound 161] | A (the compound was tested and at least 50 percent mortality was observed) | A (the compound was tested and at least 50 percent mortality was observed) | A (the compound was tested and at least 50 percent mortality was observed) | –
CO[C@@H]1[C@@H](OC)[C@H](C)O[C@@H](OC(=O)Nc2ccc(C3=NN(c4cccc(Cl)c4)CC3)cc2)[C@@H]1OC [Compound 172] | B (either (1) the compound was tested and less than 50 percent mortality was observed or (2) the compound was not tested) | B (either (1) the compound was tested and less than 50 percent mortality was observed or (2) the compound was not tested) | A (the compound was tested and at least 50 percent mortality was observed) | –
COC1C(C)OC(ON=Cc2ccc(-c3cn(-c4ccc(C(F)(F)F)cc4)nn3)cc2)C(OC)C1OC (stereo not drawn) [Compound 78] | – | B (either (1) the compound was tested and less than 50 percent mortality was observed or (2) the compound was not tested) | A (the compound was tested and at least 50 percent mortality was observed) | B (either (1) the compound was tested and less than 50 percent mortality was observed or (2) the compound was not tested)
COC1C(C)OC(ON=Cc2ccc(-c3nc(-c4ccc(Cl)cc4)n[nH]3)cc2)C(OC)C1OC (stereo not drawn) [Compound 96] | – | B (either (1) the compound was tested and less than 50 percent mortality was observed or (2) the compound was not tested) | A (the compound was tested and at least 50 percent mortality was observed) | B (either (1) the compound was tested and less than 50 percent mortality was observed or (2) the compound was not tested)
CCOC1C(OC)C(C)OC(ON=Cc2ccc(-c3ncc(-c4cccc(OC(F)(F)F)c4)cn3)cc2)C1OC (stereo not drawn) [Compound 143] | B (either (1) the compound was tested and less than 50 percent mortality was observed or (2) the compound was not tested) | B (either (1) the compound was tested and less than 50 percent mortality was observed or (2) the compound was not tested) | A (the compound was tested and at least 50 percent mortality was observed) | –
CCCOC1C(OC)C(C)OC(ON=Cc2ccc(-c3ncc(-c4ccc(OC(F)(F)F)cc4)cn3)cc2)C1OC (stereo not drawn) [Compound 144] | B (either (1) the compound was tested and less than 50 percent mortality was observed or (2) the compound was not tested) | B (either (1) the compound was tested and less than 50 percent mortality was observed or (2) the compound was not tested) | A (the compound was tested and at least 50 percent mortality was observed) | –
CCOC1C(OC)C(C)OC(ON=Cc2ccc(N3CCN(c4ccc(OC(F)(F)F)cc4)CC3)nc2)C1OC (stereo not drawn) [Compound 160] | A (the compound was tested and at least 50 percent mortality was observed) | A (the compound was tested and at least 50 percent mortality was observed) | A (the compound was tested and at least 50 percent mortality was observed) | –
COC1C(C)OC(ON=Cc2ccc(-c3cn(-c4cccc(F)n4)cn3)cc2)C(OC)C1OC (stereo not drawn) [Compound 22] | – | B (either (1) the compound was tested and less than 50 percent mortality was observed or (2) the compound was not tested) | B (either (1) the compound was tested and less than 50 percent mortality was observed or (2) the compound was not tested) | B (either (1) the compound was tested and less than 50 percent mortality was observed or (2) the compound was not tested)
CO[C@@H]1[C@@H](OC)[C@H](C)O[C@@H](O/N=C/c2ccc(-c3cn(-c4ccc(OC(F)(F)C(F)(F)F)cc4)cn3)cc2)[C@@H]1OC [Compound 51] | – | B (either (1) the compound was tested and less than 50 percent mortality was observed or (2) the compound was not tested) | A (the compound was tested and at least 50 percent mortality was observed) | B (either (1) the compound was tested and less than 50 percent mortality was observed or (2) the compound was not tested)
COC1C(C)OC(ON=Cc2ccc(-c3ccnc(-c4ccc(OC(F)(F)F)cc4)n3)cc2)C(OC)C1OC (stereo not drawn) [Compound 139] | A (the compound was tested and at least 50 percent mortality was observed) | A (the compound was tested and at least 50 percent mortality was observed) | A (the compound was tested and at least 50 percent mortality was observed) | –
COC1C(C)OC(ON=C(C)c2ccc(-c3cn(-c4ccc(OC(F)(F)F)cc4)cn3)s2)C(OC)C1OC (stereo not drawn) [Compound 164] | B (either (1) the compound was tested and less than 50 percent mortality was observed or (2) the compound was not tested) | B (either (1) the compound was tested and less than 50 percent mortality was observed or (2) the compound was not tested) | B (either (1) the compound was tested and less than 50 percent mortality was observed or (2) the compound was not tested) | –
COc1ccc(C=NOC2OC(C)C(OC)C(OC)C2OC)cc1-c1cn(-c2ccc(OC(F)(F)F)cc2)cn1 (stereo not drawn) [Compound 35] | – | B (either (1) the compound was tested and less than 50 percent mortality was observed or (2) the compound was not tested) | A (the compound was tested and at least 50 percent mortality was observed) | B (either (1) the compound was tested and less than 50 percent mortality was observed or (2) the compound was not tested)
CCCO[C@@H]1[C@@H](OC)[C@H](C)O[C@@H](OC(=O)Nc2ccc(-c3ncc(-c4ccc(OC(F)(F)F)cc4)cn3)cc2)[C@@H]1OC [Compound 236] | B (either (1) the compound was tested and less than 50 percent mortality was observed or (2) the compound was not tested) | B (either (1) the compound was tested and less than 50 percent mortality was observed or (2) the compound was not tested) | A (the compound was tested and at least 50 percent mortality was observed) | –
COC1C(C)OC(ON=Cc2ccc(-n3cnc(-c4ccc(Br)cc4)c3)cc2)C(OC)C1OC (stereo not drawn) [Compound 16] | – | A (the compound was tested and at least 50 percent mortality was observed) | B (either (1) the compound was tested and less than 50 percent mortality was observed or (2) the compound was not tested) | A (the compound was tested and at least 50 percent mortality was observed)
COC1C(C)OC(ON=Cc2ccc(-c3cncc(-c4ccc(OC(F)(F)F)cc4)n3)cc2)C(OC)C1OC (stereo not drawn) [Compound 159] | A (the compound was tested and at least 50 percent mortality was observed) | A (the compound was tested and at least 50 percent mortality was observed) | A (the compound was tested and at least 50 percent mortality was observed) | –
COC1C(C)OC(ON=Cc2ccc(-n3nnc(-c4ccc(C(F)(F)F)cc4)n3)cc2)C(OC)C1OC (stereo not drawn) [Compound 131] | B (either (1) the compound was tested and less than 50 percent mortality was observed or (2) the compound was not tested) | B (either (1) the compound was tested and less than 50 percent mortality was observed or (2) the compound was not tested) | B (either (1) the compound was tested and less than 50 percent mortality was observed or (2) the compound was not tested) | –
